Data taken from PMC10535219, “Discovery and Potential Utility of a Novel Non-Invasive Ocular Delivery Platform” (Pharmaceutics, 2023).
Read-outs that look alike come from different tables or passages of the source. Each block holds one molecule with its values, some of them ahead of it.

Tests used:
[1] = target: human IP receptor; design: method as in PMID 16331286; conditions: cited from earlier work
[2] = target: human PAF receptor; design: method as in PMID 16331286; conditions: cited from earlier work
[3] = Biodisposition of JV-DE1 eye drops in New Zealand rabbits (LC-MS/MS of plasma and ocular tissues); format: in vivo; conditions: rabbit; for Cmax / concentration at 0.5 h / concentration at 3 h / concentration at 6 h / concentration at 24 h: New Zealand; for Cmax: topical or ocular
Experimental: The in-life procedures and sample collections were performed at Joinn Laboratory Inc. (Suzhou, China). A single dose of 50 µL (120 µg) per eye of the 0.24% JV-DE1 eye drops was applied to both eyes of the animals at time 0 using a pipet. This dose was chosen based on the maximum amount deliverable as an eye drop. Blood samples were collected from all five study animals at 0 h pre-dosing. […] Plasma samples were collected before each euthanization.
Sample preparation and bioanalysis were performed at Medicilon Preclinical Research LLC (Shanghai, China). Solid ocular tissues were homogenized with 9- to 49-fold (1 g tissue in 9 mL to 49 mL, w/v) of cold homogenization buffer (50% methanol/H2O). Aliquots of plasma or aqueous humor, as well as the homogenized tissue samples, were mixed with 8-fold volumes of 200 ng/mL warfarin in a methanol solution. After vortexing and centrifuging, an aliquot of supernatants was transferred to a 96-well plate for LC-MS/MS analysis. JV-DE1 is a synthesized new chemical entity (NCE). The absence of the endogenous compound was verified by JeniVision with a battery of pre-clinical GLP and non-GLP studies, including analytical studies in monkey, dog, and rabbit tissues.
The liquid chromatography (LC) system comprised a Waters (Waters Corporation, Milford, CT, USA) Ultra Performance Liquid Chromatography (UPLC) equipped with an ACQUITY UPLC binary solvent manager, an ACQUITY UPLC sample manager, an ACQUTIY UPLC sample organizer, and an ACQUITY UPLC column heater HT. The mass spectrometric (MS) analysis was performed using a Triple Quad 6500+ (Applied Biosystems/MDS Sciex, Concord, ON, Canada) with an ESI ion source. The data acquisition and control system were created using Analyst 1.6.3 and 1.7.1 Software from Applied Biosystems/MDS Sciex. The LC/MS conditions for JV-DE1 are described in Supplementary Table S1a–c.

[4] = system: IL-1β production; design: method as in PMID 29352206; conditions: human THP-1 macrophage cell line; read-out: IC50 for reducing IL-1β production; cited from earlier work
[5] = design: method as in PMID 32434914; conditions: dietary supplementation; mouse model with advanced AMD pathologies; cited from earlier work
[6] = single eye drop 120 μg/eye OD, 0.5 h
[7] = single eye drop 120 μg/eye OD, 3 h
[8] = single eye drop 120 μg/eye OD, 6 h
[9] = single eye drop 120 μg/eye OD, 24 h

- Cmax ([3]; anterior sclera, 120 ug, eye drop 120 µg/eye, read-out: Cmax in anterior sclera): 1790 ng/g
- concentration at 0.5 h ([3]; anterior sclera, topical, 120 µg/eye, single eye drop 120 μg/eye OD, 0.5 h, read-out: Drug in OD Tissues, Anterior sclera): 1790 ng/g
- concentration at 3 h ([3]; anterior sclera, topical, 120 µg/eye, single eye drop 120 μg/eye OD, 3 h, read-out: Drug in OD Tissues, Anterior sclera): 926 ng/g
- concentration at 6 h ([3]; anterior sclera, topical, 120 µg/eye, single eye drop 120 μg/eye OD, 6 h, read-out: Drug in OD Tissues, Anterior sclera): 1480 ng/g
- concentration at 24 h ([3]; anterior sclera, topical, 120 µg/eye, single eye drop 120 μg/eye OD, 24 h, read-out: Drug in OD Tissues, Anterior sclera): 93.2 ng/g
- Cmax ([3]; bulbar conjunctiva, 120 ug, eye drop 120 µg/eye, read-out: Cmax in bulbar conjunctiva): ~16000 ng/g
- Cmax ([3]; ciliary body/iris, 120 ug, eye drop 120 µg/eye, read-out: Cmax in ciliary body/iris): 305 ng/g
- concentration at 0.5 h ([3]; ciliary body/iris, topical, 120 µg/eye, single eye drop 120 μg/eye OD, 0.5 h, read-out: Drug in OD Tissues, Ciliary body/iris): 105 ng/g
- concentration at 3 h ([3]; ciliary body/iris, topical, 120 µg/eye, single eye drop 120 μg/eye OD, 3 h, read-out: Drug in OD Tissues, Ciliary body/iris): 305 ng/g
- concentration at 6 h ([3]; ciliary body/iris, topical, 120 µg/eye, single eye drop 120 μg/eye OD, 6 h, read-out: Drug in OD Tissues, Ciliary body/iris): 231 ng/g
- concentration at 24 h ([3]; ciliary body/iris, topical, 120 µg/eye, single eye drop 120 μg/eye OD, 24 h, read-out: Drug in OD Tissues, Ciliary body/iris): 28.9 ng/g
- concentration at 0.5 h ([3]; conjunctiva, other: eye drop applied to the eye, single eye drop 120 μg/eye OD, 0.5 h, read-out: Drug in OD Tissues, Conjunctiva): 16500 ng/g
- concentration at 3 h ([3]; conjunctiva, other: eye drop applied to the eye, single eye drop 120 μg/eye OD, 3 h, read-out: Drug in OD Tissues, Conjunctiva): 5180 ng/g
- concentration at 6 h ([3]; conjunctiva, other: eye drop applied to the eye, single eye drop 120 μg/eye OD, 6 h, read-out: Drug in OD Tissues, Conjunctiva): 566 ng/g
- concentration at 24 h ([3]; conjunctiva, other: eye drop applied to the eye, single eye drop 120 μg/eye OD, 24 h, read-out: Drug in OD Tissues, Conjunctiva): 994 ng/g
- Cmax ([3]; cornea, 120 ug, eye drop 120 µg/eye, read-out: Cmax in cornea): ~12000 ng/g
- concentration at 0.5 h ([3]; cornea, topical, 120 µg/eye, single eye drop 120 μg/eye OD, 0.5 h, read-out: Drug in OD Tissues, Cornea): 12100 ng/g
- concentration at 3 h ([3]; cornea, topical, 120 µg/eye, single eye drop 120 μg/eye OD, 3 h, read-out: Drug in OD Tissues, Cornea): 5950 ng/g
- concentration at 6 h ([3]; cornea, topical, 120 µg/eye, single eye drop 120 μg/eye OD, 6 h, read-out: Drug in OD Tissues, Cornea): 5130 ng/g
- concentration at 24 h ([3]; cornea, topical, 120 µg/eye, single eye drop 120 μg/eye OD, 24 h, read-out: Drug in OD Tissues, Cornea): 542 ng/g
- concentration at 0.5 h ([3]; plasma, other: eye drop applied to the eye, single eye drop 120 μg/eye OD, 0.5 h, read-out: Drug in plasma): 1 ng/mL
- concentration at 3 h ([3]; plasma, other: eye drop applied to the eye, single eye drop 120 μg/eye OD, 3 h, read-out: Drug in plasma): 0.3 ng/mL
- concentration at 6 h ([3]; plasma, other: eye drop applied to the eye, single eye drop 120 μg/eye OD, 6 h, read-out: Drug in plasma): 0.1 ng/mL
- Cmax ([3]; posterior sclera, 120 ug, eye drop 120 µg/eye, read-out: Cmax in posterior sclera): 240 ng/g
- concentration at 0.5 h ([3]; posterior sclera, topical, 120 µg/eye, single eye drop 120 μg/eye OD, 0.5 h, read-out: Drug in OD Tissues, Posterior sclera): 209 ng/g
- concentration at 3 h ([3]; posterior sclera, topical, 120 µg/eye, single eye drop 120 μg/eye OD, 3 h, read-out: Drug in OD Tissues, Posterior sclera): 240 ng/g
- concentration at 6 h ([3]; posterior sclera, topical, 120 µg/eye, single eye drop 120 μg/eye OD, 6 h, read-out: Drug in OD Tissues, Posterior sclera): 151 ng/g
- concentration at 24 h ([3]; posterior sclera, topical, 120 µg/eye, single eye drop 120 μg/eye OD, 24 h, read-out: Drug in OD Tissues, Posterior sclera): 64.5 ng/g
- Cmax ([3]; retina, 120 µg per eye, eye drop administration, read-out: retinal Cmax): 297 nM
- Cmax ([3]; retina, 120 ug, eye drop 120 µg/eye, read-out: Cmax in retina): 92 ng/g
- concentration at 0.5 h ([3]; retina, topical, 120 µg/eye, single eye drop 120 μg/eye OD, 0.5 h, read-out: Drug in OD Tissues, Retina): 92 ng/g
- concentration at 3 h ([3]; retina, topical, 120 µg/eye, single eye drop 120 μg/eye OD, 3 h, read-out: Drug in OD Tissues, Retina): 49.1 ng/g
- concentration at 6 h ([3]; retina, topical, 120 µg/eye, single eye drop 120 μg/eye OD, 6 h, read-out: Drug in OD Tissues, Retina): 58.9 ng/g
- concentration at 24 h ([3]; retina, topical, 120 µg/eye, single eye drop 120 μg/eye OD, 24 h, read-out: Drug in OD Tissues, Retina): 6.8 ng/g
- Cmax ([3]; vitreous humor, 120 ug, eye drop 120 µg/eye, read-out: Cmax in vitreous humor): 2.6 ng/mL
- concentration at 0.5 h ([3]; vitreous humor, topical, 120 µg/eye, single eye drop 120 μg/eye OD, 0.5 h, read-out: Drug in vitreous humor): 2.6 ng/mL
- concentration at 3 h ([3]; vitreous humor, topical, 120 µg/eye, single eye drop 120 μg/eye OD, 3 h, read-out: Drug in vitreous humor): 1.7 ng/mL
- concentration at 6 h ([3]; vitreous humor, topical, 120 µg/eye, single eye drop 120 μg/eye OD, 6 h, read-out: Drug in vitreous humor): 1.2 ng/mL
- concentration at 24 h ([3]; vitreous humor, topical, 120 µg/eye, single eye drop 120 μg/eye OD, 24 h, read-out: Drug in vitreous humor): 0.4 ng/mL
- maximum ocular delivery efficiency (% administered dose), anterior sclera ([3]; eye drop 120 µg/eye): 0.2982%
- maximum ocular delivery efficiency (% administered dose), ciliary body/iris ([3]; eye drop 120 µg/eye): 0.0174%
- maximum ocular delivery efficiency (% administered dose), conjunctiva ([3]; eye drop 120 µg/eye): 1.3929%
- maximum ocular delivery efficiency (% administered dose), cornea ([3]; eye drop 120 µg/eye): 0.8622%
- maximum ocular delivery efficiency (% administered dose), retina ([3]; eye drop 120 µg/eye): 0.0047%
- maximum ocular delivery efficiency (% administered dose), vitreous humor ([3]; eye drop 120 µg/eye): 0.0023%
- drug concentration in the plasma ([3]; eye drop 120 µg/eye, throughout 0.5, 3 and 6 h post-dose): no more than 0.001 µg/mL
- % Administered Dose, Anterior sclera [3, 6]: 0.2982%
- % Administered Dose, Ciliary body/iris [3, 6]: 0.0084%
- % Administered Dose, Conjunctiva [3, 6]: 1.3929%
- % Administered Dose, Cornea [3, 6]: 0.8622%
- % Administered Dose, Posterior sclera [3, 6]: 0.0153%
- % Administered Dose, Retina [3, 6]: 0.0047%
- % Administered Dose, Vitreous humor [3, 6]: 0.0023%
- % Administered Dose, Anterior sclera [3, 7]: 0.1068%
- % Administered Dose, Ciliary body/iris [3, 7]: 0.0174%
- % Administered Dose, Conjunctiva [3, 7]: 0.4477%
- % Administered Dose, Cornea [3, 7]: 0.4239%
- % Administered Dose, Posterior sclera [3, 7]: 0.0323%
- % Administered Dose, Retina [3, 7]: 0.0036%
- % Administered Dose, Vitreous humor [3, 7]: 0.0012%
- % Administered Dose, Anterior sclera [3, 8]: 0.2139%
- % Administered Dose, Ciliary body/iris [3, 8]: 0.0137%
- % Administered Dose, Conjunctiva [3, 8]: 0.1288%
- % Administered Dose, Cornea [3, 8]: 0.3709%
- % Administered Dose, Posterior sclera [3, 8]: 0.0197%
- % Administered Dose, Retina [3, 8]: 0.0037%
- % Administered Dose, Vitreous humor [3, 8]: 0.0007%
- % Administered Dose, Anterior sclera [3, 9]: 0.0127%
- % Administered Dose, Ciliary body/iris [3, 9]: 0.0021%
- % Administered Dose, Conjunctiva [3, 9]: 0.1467%
- % Administered Dose, Cornea [3, 9]: 0.0254%
- % Administered Dose, Posterior sclera [3, 9]: 0.0088%
- % Administered Dose, Retina [3, 9]: 0.0004%
- % Administered Dose, Vitreous humor [3, 9]: 0.0004%
- Drug in plasma ([3]; single eye drop 120 μg/eye OD, 24 h, LLOQ 0.0001 µg/mL): BLQ
Structure (SMILES): CC(C)Oc1ccc(Cc2ccc(NC3=NCCN3)cc2)cc1 [JV-DE1, 4,5-dihydro-N-[4-[[4-(1-methylethoxy)phenyl]methyl]phenyl]-1H-imadazol-2-amine]
- Ki [1]: 0.5 nM
- pKi [1]: 9.3
- pKi [2]: 7.9

Structure (SMILES): CC/C=C\C/C=C\C/C=C\C/C=C\C/C=C\C/C=C\CCC(=O)O [JV-MD2, cis-4,7,10,13,16,19-docosahexaenoic acid]
- IC50 [4]: 4600 nM
- effect on AMD pathologies [5]: alleviated most pathologies
